Results from patent publication US6410792B1, “Amide derivatives and methods for using the same as selective neuropeptide Y receptor antagonists” (Bayer Corporation, priority 1997, dated 2002).
Like-named read-outs stand apart in the source and are kept apart here.

How the values were obtained:
[1] = molecular target: T1, Human NPY5 receptor (Homo sapiens, UniProt Q15761); experiment: Human NPY5 receptor binding assay ([125I]PYY, membrane protein)
T1 sequence (Q15761 1-445): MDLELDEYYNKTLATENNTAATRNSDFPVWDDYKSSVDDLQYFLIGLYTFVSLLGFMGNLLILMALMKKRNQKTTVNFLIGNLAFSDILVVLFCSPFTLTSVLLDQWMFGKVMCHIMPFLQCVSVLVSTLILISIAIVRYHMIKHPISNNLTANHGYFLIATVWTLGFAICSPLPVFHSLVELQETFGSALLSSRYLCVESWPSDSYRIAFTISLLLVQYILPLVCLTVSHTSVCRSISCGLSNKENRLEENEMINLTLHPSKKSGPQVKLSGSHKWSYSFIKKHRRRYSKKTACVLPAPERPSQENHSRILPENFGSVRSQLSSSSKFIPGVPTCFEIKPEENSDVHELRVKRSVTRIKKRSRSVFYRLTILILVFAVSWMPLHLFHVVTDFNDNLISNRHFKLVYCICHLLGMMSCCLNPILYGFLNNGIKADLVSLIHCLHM
Method: C. Human and Rat NPY5 Receptor Binding Assays
Binding assays are performed on GF/C Millipore 96well plates pretreated with 0.02% polyethylenimine. The binding buffer is 25 mM Tris, 120 mM NaCl, 5 mM KCl, 1.2 mM KH2PO4, 2.5 mM CaCl2, 1.2 mM MgSO4, 0.1% BSA and 0.5 mg/ml bacitracin, pH 7.4. Samples consist of membrane protein, 75-100 pM [125I]PYY (porcine, NEN-DuPont) and drug dilution. Nonspecific binding is defined by 1 μM PYY. After a 2 hour incubation at room temperature with constant mixing, the samples are aspirated on a vacuum manifold, and rinsed with ice-cold binding buffer. The amount of radioactivity in each well is quantitated with either gamma counting or liquid scintillation.

[2] = molecular target: T2, Y2 receptor (Homo sapiens, UniProt P49146); experiment: Y2 receptor binding assay ([125I]PYY, membrane protein); conditions: [125I]PYY binding, membrane protein; read-out: hNPY2 IC50
T2 sequence (P49146 1-381): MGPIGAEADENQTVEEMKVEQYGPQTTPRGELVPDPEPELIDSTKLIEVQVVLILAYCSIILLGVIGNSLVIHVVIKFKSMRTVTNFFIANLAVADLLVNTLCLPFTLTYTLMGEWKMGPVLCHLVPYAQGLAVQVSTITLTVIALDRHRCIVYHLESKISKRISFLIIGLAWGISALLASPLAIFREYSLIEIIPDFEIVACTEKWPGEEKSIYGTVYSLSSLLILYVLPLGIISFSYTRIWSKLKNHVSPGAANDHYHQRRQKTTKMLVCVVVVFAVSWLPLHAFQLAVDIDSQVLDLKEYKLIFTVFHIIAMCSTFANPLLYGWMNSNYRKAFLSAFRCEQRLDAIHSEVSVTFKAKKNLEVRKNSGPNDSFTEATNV
Method: B. Human Y2 and Y4/PP1 Receptor Binding Assays
Binding assays were performed on GF/C Millipore 96-well plates pretreated with 0.02% polyethylenimine. The binding buffer for rat Y2 binding is Krebs-Ringer bicarbonate (pH 7.4) containing 0.01% BSA and 0.005% bacitracin. Samples consist of membrane protein, 25 pM [1251]PYY and drug dilution. Nonspecific binding is defined by 1 μM NPY. The binding buffer for human Y4/PP1 binding consists of 137 mM NaCl, 5.4 mM KCl, 0.44 mM KH2PO4, 1.26 mM CaCl2, 0.81 mM MgSO4, 20 mM HEPES, 1 mM dithiothreitol, 0.1% bacitracin, 100 mg/l streptomycin sulfate, 1 mg/l aprotinin, 10 mg/ml soybean trypsin inhibitor and 0.3% BSA, pH 7.4. Samples consist of membrane protein, 50 pM human [1251]human PP (hPP: NEN DuPont, Boston, Mass.) and drug dilution. 1 μM hPP is used to define nonspecific binding.
After a 2 hour incubation at room temperature with constant mixing, the samples are aspirated on a vacuum manifold, and rinsed with ice-cold binding buffer. The amount of radioactivity in each well is quantitated with either gamma counting or liquid scintillation.

[3] = [125I]PYY binding, read-out: hNPY5 IC50

Compound | IC50 [1, 3] [µM] | IC50 [2] [µM] | IC50 ([1]; hNPY5 IC50, [125I]PYY binding) [µM]
O=C(CN1CCN(c2ccccc2Cl)CC1)Nc1ccc(C2CCCCC2)cc1 [Compound 3, 2-[4-(2-Chloro-phenyl)-piperazin-1-yl]-N-(4-cyclohexyl-phenyl)-acetamide] | 0.19 | > 5 | 
O=C(CN1CCOCC1)Nc1ccc(C(=O)c2ccccc2)cc1 [Compound 6, N-(4-Benzoyl-phenyl)-2-morpholin-4-yl-acetamide] | 0.8 | > 5 | 
CCN(CC)CC(=O)Nc1ccc(C(=O)c2ccccc2)cc1 [Compound 7, N-(4-Benzoyl-phenyl)-2-diethylamino-acetamide] | 1.6 | > 5 | 
O=C(CN1CCN(c2ccccc2Cl)CC1)Nc1ccc(C(=O)c2ccccc2)cc1 [Compound 8, N-(4-Benzoyl-phenyl)-2-[4-(2-chloro-phenyl)-piperazin-1-yl]-acetamide] | 0.96 | > 5 | 
O=C(CN1CCN(c2cccc(Cl)c2)CC1)Nc1ccc(C(=O)c2ccccc2)cc1 [Compound 9] | 0.64 | > 5 | 
O=C(CN1CCN(c2ccc(Cl)cc2)CC1)Nc1ccc(C(=O)c2ccccc2)cc1 [Compound 10, N-(4-Benzoyl-phenyl)-2-[4-(4-chloro-phenyl)-piperazin-1-yl]-acetamide] | 2.9 | > 5 | 
O=C(CNCc1ccccc1)Nc1ccc(C2CCCCC2)cc1 [Compound 11, 2-Benzylamino-N-(4-cyclohexyl-phenyl)-acetamide] | 2.8 | > 5 | 
O=C(CN1CCN(Cc2ccccc2)CC1)Nc1ccc(C2CCCCC2)cc1 [Compound 13, 2-(4-Benzyl-piperazin-1-yl)-N-(4-cyclohexyl-phenyl)-acetamide] | 9.1 | > 5 | 
O=C(CN(CCO)c1ccccc1)Nc1ccc(C2CCCCC2)cc1 [Compound 14, N-(4-cyclohexyl-phenyl)-2-[(2-hydroxy-ethyl)-phenyl-amino]-acetamide] | 1.8 | > 5 | 
O=C(CN1CCN(Cc2ccccc2)CC1)Nc1ccc(C(=O)c2ccccc2)cc1 [Compound 16, N-(4-Benzoyl-phenyl)-2-(4-benzyl-piperazin-1-yl)-acetamide] | 9.6 | > 5 | 
O=C(CN(CCO)c1ccccc1)Nc1ccc(C(=O)c2ccccc2)cc1 [Compound 17, N-(4-Benzoyl-phenyl)-2-[(2-hydroxy-ethyl)-phenyl-amino]-acetamide] | 1.2 | > 5 | 
O=C(CN1CC=C(c2ccc(Cl)cc2)CC1)Nc1ccc(C(=O)c2ccccc2)cc1 [Compound 18, N-(4-Benzoyl-phenyl)-2-[4-(4-chloro-phenyl)-3,6-dihydro-2H-pyridin-1-yl]-acetamide] | 5.2 | > 5 | 
O=C(CN1CCC(O)(Cc2ccccc2)CC1)Nc1ccc(C(=O)c2ccccc2)cc1 [Compound 19, N-(4-Benzoyl-phenyl)-2-(4-benzyl-4-hydroxy-piperidin-1-yl)-acetamide] | 0.4 | > 5 | 
O=C(CN1[C@@H](C(=O)O)CC[C@@H]1O)Nc1ccc(C(=O)c2ccccc2)cc1 [Compound 20, (5S,2R)-1-[(4-Benzoyl-phenylcarbamoyl)-methyl]-5-hydroxy-pyrrolidine-2-carboxylic acid] | 7.6 | > 5 | 
CCN(CC(=O)Nc1ccc(C(=O)c2ccccc2)cc1)Cc1ccncc1 [Compound 21, N-(4-Benzoyl-phenyl)-2-(ethyl-pyridin-4-ylmethyl-amino)-acetamide] | 0.63 | > 5 | 
O=C(CN(c1ccccn1)c1ccccn1)Nc1ccc(C(=O)c2ccccc2)cc1 [Compound 22, N-(4-Benzoyl-phenyl)-2-(di-pyridin-2-yl-amino)-acetamide] | 9.9 | > 5 | 

Compound | IC50 [1, 3] [µM] | IC50 [2] [µM] | IC50 ([1]; hNPY5 IC50, [125I]PYY binding) [µM]
O=C(CN1CCC(CCCC2CCNCC2)CC1)Nc1ccc(C2CCCCC2)cc1 [Compound 23, N-(4-Cyclohexyl-phenyl)-2-[4-(3-piperidin-4-yl-propyl)-piperidin-1-yl]-acetamide] | > 10 | > 5 | 
O=C(CN1CCC(N2CCCCC2)CC1)Nc1ccc(C2CCCCC2)cc1 [Compound 24, 2-[1,4′]Bipiperidinyl-1′-yl-N-(4-cyclohexyl-phenyl)-acetamide] | 2.9 | > 5 | 
O=C(CNCC1CCNCC1)Nc1ccc(C2CCCCC2)cc1 [Compound 28, N-(4-Cyclohexyl-phenyl)-2-[(piperidin-4-ylmethyl)-amino]-acetamide] | 8.9 | > 5 | 
O=C(CN1CCC(N2CCCC2)CC1)Nc1ccc(C2CCCCC2)cc1 [Compound 29] | 4.4 | > 5 | 
NC(=O)C1(Nc2ccccc2)CCN(CC(=O)Nc2ccc(C3CCCCC3)cc2)CC1 [Compound 31, 1-[(4-Cyclohexyl-phenylcarbamoyl)-methyl]-4-phenylamino-piperidine-4-carboxylic acid amide] | 1.2 | > 5 | 
CN(C)C1CCN(CC(=O)Nc2ccc(C3CCCCC3)cc2)CC1 [Compound 32, N-(4-Cyclohexyl-phenyl)-2-(4-dimethylamino-piperidin-1-yl)-acetamide] | 3 | > 5 | 
CC1CCN(CC(=O)Nc2ccc(C3CCCCC3)cc2)CC1 [Compound 33, N-(4-Cyclohexyl-phenyl)-2-(4-methyl-piperidin-1-yl)-acetamide] | > 10 | > 5 | 
CC1(C)CCN(CC(=O)Nc2ccc(C3CCCCC3)cc2)CC1 [Compound 34, N-(4-Cyclohexyl-phenyl)-2-(4,4-dimethyl-piperidin-1-yl)-acetamide] | 1.4 | > 5 | 
NC(=O)C1(NC2CCCCC2)CCN(CC(=O)Nc2ccc(C3CCCCC3)cc2)CC1 [Compound 35, 4-Cyclohexylamino-1-[(4-cyclohexyl-phenylcarbamoyl)-methyl]-piperidin-4-carboxylic acid amide] | 0.63 | > 5 | 
CN(C)C1(C(N)=O)CCN(CC(=O)Nc2ccc(C3CCCCC3)cc2)CC1 [Compound 36, 1-[(4-Cyclohexyl-phenylcarbamoyl)-methyl]-4-dimethylamino-piperidine-4-carboxylic acid amide] | 0.71 | > 5 | 
O=C(CN1CCC(CCCC2CCNCC2)CC1)Nc1ccc(C(=O)c2ccccc2)cc1 [Compound 37, N-(4-Benzoyl-phenyl)-2-[4-(3-piperidin-4-yl-propyl)-piperidin-1-yl]-acetamide] | > 10 | > 5 | 
O=C(CN1CCC(Cc2ccccc2)CC1)Nc1ccc(C(=O)c2ccccc2)cc1 [Compound 38, N-(4-Benzoyl-phenyl)-2-(4 benzyl-piperidin-1-yl)-acetamide] | 8.5 | > 5 | 
O=C(CN1CCC(N2CCCCC2)CC1)Nc1ccc(C(=O)c2ccccc2)cc1 [Compound 39, N-(4-Benzoyl-phenyl)-2-[1,4′]bipiperidinyl-1′-yl-acetamide] | 2.1 | > 5 | 
O=C(CN1CCC(C(=O)O)CC1)Nc1ccc(C(=O)c2ccccc2)cc1 [Compound 40, 1-[(4-Benzoyl-phenylcarbamoyl)-methyl]-piperidine-4-carboxylic acid] | > 10 | > 5 | 
O=C(CN1CCC(O)(c2ccccc2)CC1)Nc1ccc(C(=O)c2ccccc2)cc1 [Compound 41, N-(4-Benzoyl-phenyl)-2-(4-hydroxy-4-phenyl-piperidin-1-yl)-acetamide] |  | > 5 | 0.06
